Like-named read-outs stand apart in the source and are kept apart here.
How the values were obtained:
[1] = amide bond, 15-membered ring
Del19/T790M/C797S EGFR = assay: EGFR degradation HTRF assay in H1975-clone #28 (DTC) cells; assay type: cell-based; conditions: H1975 # 28 DTC (Del19/T790M/C797S), 16h treatment; for DC50: HTRF; for Dmax (%): maximum percentage of degradation
Method in brief: (§1)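 Remaining EGFR protein was measured by HTRF (337 nm excitation, 665/620 nm emission) in lysates after overnight antibody incubation. Cells had been exposed for 16 h to an 8-point, 5-fold series starting at 10 uM, and DC50 values were fitted with a Hill equation.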

L858R/T790M/C797S EGFR = target: T1, L858R/T790M/C797S EGFR (Homo sapiens, UniProt P00533, C797S/L858R/T790M); assay: EGFR degradation HTRF assay in H1975-clone #25 (LTC) cells; assay type: cell-based; conditions: 16h treatment; for DC50: H1975 # 25-LTC (L858R/T790M/C797S), HTRF; for Dmax: NCI-H1975, H1975 # 25-LTC (L858R/T790M/C797S), maximum percentage of degradation
T1 construct: expressed in transfected cells; host or cells: H1975 clone #25 (lentiviral over-expression, endogenous EGFR knocked out by sgRNA)
Method in brief: as §1

Del19/C797S EGFR = assay: EGFR degradation HTRF assay in H1975-clone #23 (DC) cells; assay type: cell-based; conditions: H1975 #23 DC (Del19/C797S), 16h treatment; for DC50: HTRF; for Dmax (%): maximum percentage of degradation
Source text: (§2) H1975-clone #28(Del19/T790M/C797S, or abbr: DTC), H1975-clone #23(Del19/C797S, or abbr: DC), H1975-clone #25(L858R/T790M/C797S, or abbr: LTC) and H1975-clone #8 (L858R/C797S, or abbr: LC). EGFR-Del19:T790M/C797S, EGFR-Del19/C797S, EGFR-L858R/T790M/C797S and EGFR-L858R/C797S were stably expressed in H1975 cell lines by lentivirus-mediated over-expression, respectively. The EGFR over-expressed cells then underwent knockout, in which the EGFR targeting sgRNA was designed to only target the endogenous EGFR copies and preserve the exogenous EGFR copies. Followed by the knockout, the edited H1975 cells were seeded in 96 well plates at the concentration of […], cultured for about 2 weeks to allow single clones formation. The formed clones were screened by DNA sequencing and whole exon sequencing analysis for the desired edition. H1975-clone #28, H1975-clone #23, H1975-clone #25 and H1975-clone #8 were finally confirmed as homozygous Del19/T790M/C797S EGFR, Dell9/C797S EGFR, L858R/T790M/C797S EGFR and L858R/C797S EGFR clones, respectively.
(§3) H1975-#25, H1975-#28, H1975-#23 and H1975-#8 cells are treated with compounds diluted in 0.2% DMSO cell culture medium on day 2, incubate for 16h, 37° C., 5% CO2. the final concentration of compounds in all assay is start with 10 uM, 5-fold dilution, total 8 doses were included.
(§4) After 16h treatment, add HTRF lysis buffer to each well; seal the plate and incubate 1 hour at room temperature on a plate shaker; Once the cells are lysed, 16 μL of cell lysate are transferred to a PE 384-well HTRF detection plate; 4 μL of pre-mixed HTRF antibodies are added to each well; Cover the plate with a plate sealer, spin 1000 rpm for 1 min, Incubate overnight at room temperature; Read on BMG PheraStar with HTRF protocol (337 nm-665 nm-620 nm).
(§5) The IC50 (DC50) value of a compound can be obtained by fitting the following equation
(§6) Y=Bottom+(TOP−Bottom)/(1+((IC50/X)^hillslope))
(§7) Wherein, X and Y are known values, and IC50, Hillslope, Top and Bottom are the parameters obtained by fitting with software. Y is the inhibition percentage (calculated from the equation), X is the concentration of the compound: IC50 is the concentration of the compound when the 50% inhibition is reached. The smaller the IC50 value is, the stronger the inhibitory ability of the compound is. Vice versa, the higher the IC50 value is, the weaker the ability the inhibitory ability of the compound is: Hillslope represents the slope of the fitted curve, generally around 1*; Bottom represents the minimum value of the curve obtained by data fitting, which is generally 0%±20%; Top represents the maximum value of the curve obtained by data fitting, which is generally 100%±20%. The experimental data were fitted by calculating and analyzing with Dotmatics data analysis software.

L858R/C797S EGFR = target: T2, L858R/C797S EGFR (Homo sapiens, UniProt P00533, C797S/L858R); assay: EGFR degradation HTRF assay in H1975-clone #8 (LC) cells; assay type: cell-based; conditions: H1975 #8 LC (L858R/C797S), 16h treatment; for DC50: HTRF; for Dmax: NCI-H1975, maximum percentage of degradation
T2 construct: expressed in transfected cells; host or cells: H1975 clone #8 (lentiviral over-expression, endogenous EGFR knocked out by sgRNA)
Source text: as §2, §3, §4, §5, §6, §7

T1 sequence (P00533 25-1210 T790M/C797S/L858R): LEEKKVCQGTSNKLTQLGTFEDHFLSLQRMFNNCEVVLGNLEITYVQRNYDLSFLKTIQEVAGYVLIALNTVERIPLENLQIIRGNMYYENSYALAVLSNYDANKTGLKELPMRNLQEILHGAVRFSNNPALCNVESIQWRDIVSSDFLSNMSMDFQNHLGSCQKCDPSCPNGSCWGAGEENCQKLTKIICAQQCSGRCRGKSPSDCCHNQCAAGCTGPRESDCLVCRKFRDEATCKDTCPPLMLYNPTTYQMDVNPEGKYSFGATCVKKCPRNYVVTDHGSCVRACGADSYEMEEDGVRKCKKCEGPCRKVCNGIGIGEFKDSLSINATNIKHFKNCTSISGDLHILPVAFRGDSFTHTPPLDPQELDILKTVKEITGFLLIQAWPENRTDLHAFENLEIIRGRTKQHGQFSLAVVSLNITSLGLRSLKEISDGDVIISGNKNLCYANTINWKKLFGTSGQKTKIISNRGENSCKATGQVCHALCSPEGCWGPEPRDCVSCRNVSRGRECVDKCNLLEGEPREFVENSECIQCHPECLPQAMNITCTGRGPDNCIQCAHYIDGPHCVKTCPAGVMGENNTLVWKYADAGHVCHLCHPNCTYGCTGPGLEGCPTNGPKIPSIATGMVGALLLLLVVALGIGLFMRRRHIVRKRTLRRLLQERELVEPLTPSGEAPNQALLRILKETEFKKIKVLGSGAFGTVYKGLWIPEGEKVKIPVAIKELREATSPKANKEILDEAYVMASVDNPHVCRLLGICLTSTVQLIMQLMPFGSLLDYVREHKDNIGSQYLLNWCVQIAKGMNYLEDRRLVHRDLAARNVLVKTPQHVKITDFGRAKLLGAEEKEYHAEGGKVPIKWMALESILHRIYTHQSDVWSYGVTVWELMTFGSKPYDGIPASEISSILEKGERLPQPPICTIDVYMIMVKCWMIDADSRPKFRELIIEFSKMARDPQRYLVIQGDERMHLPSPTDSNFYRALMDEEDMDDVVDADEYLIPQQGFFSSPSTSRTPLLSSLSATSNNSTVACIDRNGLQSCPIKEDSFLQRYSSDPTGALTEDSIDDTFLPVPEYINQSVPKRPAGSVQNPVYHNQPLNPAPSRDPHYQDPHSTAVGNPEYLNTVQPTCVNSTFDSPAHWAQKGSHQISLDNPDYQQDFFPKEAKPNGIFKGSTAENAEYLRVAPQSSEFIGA
T2 sequence (P00533 25-1210 C797S/L858R): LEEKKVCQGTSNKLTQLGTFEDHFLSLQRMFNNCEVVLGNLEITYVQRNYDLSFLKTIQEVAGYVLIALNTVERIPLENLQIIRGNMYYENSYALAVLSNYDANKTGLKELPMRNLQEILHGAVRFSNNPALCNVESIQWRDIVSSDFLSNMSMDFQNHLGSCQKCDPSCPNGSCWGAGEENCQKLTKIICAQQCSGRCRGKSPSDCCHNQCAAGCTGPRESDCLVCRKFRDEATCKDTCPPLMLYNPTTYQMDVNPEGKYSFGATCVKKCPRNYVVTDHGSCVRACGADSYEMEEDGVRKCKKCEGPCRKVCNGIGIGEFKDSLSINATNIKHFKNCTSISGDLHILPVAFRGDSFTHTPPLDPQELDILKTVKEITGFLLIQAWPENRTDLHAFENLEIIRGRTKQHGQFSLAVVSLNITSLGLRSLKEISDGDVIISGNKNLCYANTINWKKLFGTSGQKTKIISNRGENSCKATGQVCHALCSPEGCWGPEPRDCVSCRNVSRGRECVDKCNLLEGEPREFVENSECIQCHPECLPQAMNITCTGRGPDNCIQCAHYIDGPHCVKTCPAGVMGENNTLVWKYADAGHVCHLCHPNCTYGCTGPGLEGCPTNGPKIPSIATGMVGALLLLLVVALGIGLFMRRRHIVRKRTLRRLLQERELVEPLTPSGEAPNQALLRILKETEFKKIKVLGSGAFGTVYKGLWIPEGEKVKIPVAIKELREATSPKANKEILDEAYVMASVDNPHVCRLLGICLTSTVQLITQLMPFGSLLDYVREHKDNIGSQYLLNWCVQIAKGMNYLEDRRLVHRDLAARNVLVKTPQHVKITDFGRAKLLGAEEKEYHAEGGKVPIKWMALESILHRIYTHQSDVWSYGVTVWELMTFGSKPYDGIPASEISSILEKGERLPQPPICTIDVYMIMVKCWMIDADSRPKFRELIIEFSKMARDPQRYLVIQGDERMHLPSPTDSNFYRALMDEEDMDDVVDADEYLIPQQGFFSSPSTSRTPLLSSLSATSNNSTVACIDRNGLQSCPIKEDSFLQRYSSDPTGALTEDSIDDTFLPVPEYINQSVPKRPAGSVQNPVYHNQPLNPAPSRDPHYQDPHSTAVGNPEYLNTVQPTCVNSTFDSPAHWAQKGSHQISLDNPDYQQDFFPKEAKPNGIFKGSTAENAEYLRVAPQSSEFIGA

| Compound | DC50 (Del19/T790M/C797S EGFR) [nM] | Dmax (%) (Del19/T790M/C797S EGFR) | DC50 (L858R/T790M/C797S EGFR) [nM] | Dmax (L858R/T790M/C797S EGFR) [%] | DC50 (Del19/C797S EGFR) [nM] | Dmax (%) (Del19/C797S EGFR) | further results |
| --- | --- | --- | --- | --- | --- | --- | --- |
| tert-butyl (R,E)-3-oxo-4-(1^1,2^6,7-trimethyl-3-oxo-5^2,5^3-dihydro-1^1H,5^1H-11-oxa-4-aza-5(2,1)-benzo[d]imidazola-2(2,4)-pyridina-1(4,5)-pyrazolacycloundecaphane-5′-yl)piperazine-1-carboxylate | – | – | – | – | – | – | ring closure, isolated yield ([1]; HATU/DIEA, DCM, 155.0 mM, 25.0 °C): 51.4% |
| Cc1cc2cc(n1)-c1cnn(C)c1OCCC[C@@H](C)Cn1c(nc3ccc(Br)cc31)NC2=O | – | – | – | – | – | – | ring closure, isolated yield ([1]; from Cc1cc(C(=O)O)cc(-c2cnn(C)c2OCCC[C@@H](C)Cn2c(N)nc3ccc(Br)cc32)n1, TBTU/TEA, DCM, 117.0 mM, 20.0 °C): 82% |
| COC(=O)c1cc(C)nc(-c2cnn(C)c2OCCC[C@@H](C)Cn2c(N)nc3ccc(N4CCC5(CC4=O)OCCO5)cc32)c1 | – | – | – | – | – | – | ring closure, isolated yield ([1]; the molecule shown is the open-chain precursor, LiHMDS, DMF/THF, 32.0 mM, 0.0 °C): 54.5% |
| Cc1cc2cc(n1)-c1cnn(C)c1OCCC[C@@H](C)CN1/C(=N/C2=O)Nc2ccc(CN3CCN(C(=O)[C@@H]4CCN(c5cc(F)c([C@H]6CCC(=O)NC6=O)c(F)c5)C4)CC3)cc21 [Example 5, (R)-3-(2,6-difluoro-4-((R)-3-(4-(((R,E)-1^1,2^6,7-trimethyl-3-oxo-5^2,5^3-dihydro-1^1H,5^1H-11-oxa-4-aza-5(2,1)-benzo[d]imidazola-2(2,4)-pyridina-1(4,5)-pyrazolacycloundecaphane-5^6-yl)methyl)piperazine-1-carbonyl)pyrrolidin-1-yl)phenyl)piperidine-2,6-dione] | 1.5 | 72.0 | 2 | 83 | 0.6 | 67.6 | – |
| Cc1cc2cc(n1)-c1cnn(C)c1OCCC[C@@H](C)CN1/C(=N/C2=O)Nc2ccc(CN3CCC(N4CCN(C(=O)[C@@H]5CCN(c6cc(F)c([C@H]7CCC(=O)NC7=O)c(F)c6)C5)CC4)CC3)cc21 [Example 6, (R)-3-(2,6-difluoro-4-((R)-3-(4-(1-(((R,E)-1^1,2^6,7-trimethyl-3-oxo-5^2,5^3-dihydro-1^1H,5^1H-11-oxa-4-aza-5(2,1)-benzo[d]imidazola-2(2,4)-pyridina-1(4,5)-pyrazolacycloundecaphane-5^6-yl)methyl)piperidin-4-yl)piperazine-1-carbonyl)pyrrolidin-1-yl)phenyl)piperidine-2,6-dione] | 0.8 | 85.7 | 1.1 | 89.9 | 1.7 | 78.2 | DC50 (L858R/C797S EGFR): 3 nM; Dmax (L858R/C797S EGFR): 63.1% |
| Cc1cc2cc(n1)-c1cnn(C)c1OCCC[C@@H](C)CN1/C(=N/C2=O)Nc2ccc(CN3CCC4(CC3)CCN(C(=O)[C@@H]3CCN(c5cc(F)c([C@H]6CCC(=O)NC6=O)c(F)c5)C3)CC4)cc21 [Example 9, (R)-3-(2,6-difluoro-4-((R)-3-(9-(((R,E)-1^1,2^6,7-trimethyl-3-oxo-5^2,5^3-dihydro-1^1H,5^1H-11-oxa-4-aza-5(2,1)-benzo[d]imidazola-2(2,4)-pyridina-1(4,5)-pyrazolacycloundecaphane-5^6-yl)methyl)-3,9-diazaspiro[5.5]undecane-3-carbonyl)pyrrolidin-1-yl)phenyl)piperidine-2,6-dione] | 1.7 | 76.4 | 0.8 | 90.1 | 1 | 82.6 | DC50 (L858R/C797S EGFR): 3.2 nM; Dmax (L858R/C797S EGFR): 64.6% |
| COC(=O)c1cc(C)nc(-c2cnn(C)c2OCC[C@H]2C[C@@H]2Cn2c(=N)[nH]c3ccc(Br)cc32)c1 | – | – | – | – | – | – | ring closure, isolated yield ([1]; the molecule shown is the open-chain precursor, LiHMDS, DMF/THF, 56.7 mM, 25.0 °C): 49.6% |
| Cc1cc2cc(n1)-c1cnn(C)c1OCCC[C@@H](C)CN1/C(=N/C2=O)Nc2ccc(NC3CN(C4CCN(c5cc(F)c([C@H]6CCC(=O)NC6=O)c(F)c5)CC4)C3)cc21 [Example 459, (R)-3-(2,6-difluoro-4-(4-(3-(((R,E)-1^1,2^6,7-trimethyl-3-oxo-5^2,5^3-dihydro-1^1H,5^1H-11-oxa-4-aza-5(2,1)-benzo[d]imidazola-2(2,4)-pyridina-1(4,5)-pyrazolacycloundecaphane-5^6-yl)amino)azetidin-1-yl)piperidin-1-yl)phenyl)piperidine-2,6-dione] | 0.624 | 73.95 | 0.431 | 84.1 | – | – | – |
| COC[C@@H]1CN(Cc2ccc3c(c2)N2C[C@H](C)CCCOc4c(cnn4C)-c4cc(cc(C)n4)C(=O)/N=C/2N3)CCN1C(=O)[C@@H]1CCN(c2cc(F)c([C@H]3CCC(=O)NC3=O)c(F)c2)C1 [Example 202, (R)-3-(2,6-difluoro-4-((R)-3-((S)-2-(methoxymethyl)-4-(((R,E)-1^1,2^6,7-trimethyl-3-oxo-5^2,5^3-dihydro-1^1H,5^1H-li-oxa-4-aza-5(2,1)-benzo[d]imidazola-2(2,4)-pyridina-(4,5)-pyrazolacycloundecaphane-5^6-yl)methyl)piperazine-1-carbonyl)pyrrolidin-1-yl)phenyl)piperidine-2,6-dione] | 1.32 | 72.07 | 0.89 | 78.8 | – | – | – |
| CO[C@H]1CN(CCc2cc(F)c([C@H]3CCC(=O)NC3=O)c(F)c2)CC[C@H]1N(C)C(=O)c1ccc2c(c1)N1C[C@H](C)CCCOc3c(cnn3C)-c3cc(cc(C)n3)C(=O)/N=C/1N2 [Example 255, (R,E)-N—((3S,4R)-1-(4-((R)-2,6-dioxopiperidin-3-yl)-3,5-difluorophenethyl)-3-methoxypiperidin-4-yl)-N,1^1,2^6,7-tetramethyl-3-oxo-5^2,5^3-dihydro-1^1H,5^1H-11-oxa-4-aza-5(2,1)-benzo[d]imidazola-2(2,4) -pyridina-1(4,5)-pyrazolacycloundecaphane-5^6-carboxamide] | 0.566 | 81.82 | 0.599 | 91.1 | – | – | – |

Source: patent US20240342292A1, “Compounds for the Degradation of EGFR Kinase” (BeiGene Switzerland GmbH, priority 2021, published 2024)
